The record followed here is US10774051B2, “6-membered heterocyclic derivatives and pharmaceutical composition comprising the same” (Shionogi & Co., Ltd., priority 2015, dated 2020).

pIC50: −log10 of the molar value.

For the first assay, the target named is human P2X7 receptor (Homo sapiens, UniProt Q99572, R270H/Y155H). Kind of assay: Evaluation of human P2X7 receptor inhibitory activity (Yo-Pro uptake, BzATP stimulation, FLIPR TETRA). The note with it: 1321N1 cells stably expressing human P2X7 receptor; BzATP stimulation, Yo-Pro uptake; read-out: IC50 (antagonistic activity for the human P2X7 receptor). It is filed as cell-based. As to the method:
Stably expressing cell line (1321N1 cell transfected with the human P2X7 receptor gene (GenBank accession number NM_002562.5 including T606C and G952A SNP)) was used. The cells were seeded in a 384-well microtiter plate at a concentration of 8000 cells/well and cultured in the medium (10% fetal bovine serum, 25 mM HEPES, 1% penicillin and streptomycin in DMEM) for one day at 37° C. under 5% carbon dioxide atmosphere. After replacing with 20 μL of the HBSS buffer (20 mM HEPES, 55.6 mM D-glucose, 1×HBSS(−), pH7.4-7.5), 15 μL of 17.3 μM Yo-Pro solution in the HBSS buffer was added. The plate was placed in high-throughput cellular screening system FLIPR TETRA (Molecullar Devices, LLC.) and 15 μL of 130 μM BzATP solution in the HBSS buffer was added. Measurement of fluorescence intensity by FLIPR TETRA was started. After eight minutes, 15 μL of DMSO solutions containing different concentrations of the compound of the present invention as prepared by dilution with the HBSS buffer were dispensed to each well through the built-in automatic dispenser, and the measurement of fluorescence intensity was continued for 20 minutes. […] Changing values of fluorescence intensity by the compound of the present invention were calculated by difference between maximum and minimum fluorescence intensity for 20 minutes. Inhibition ratios (%) were calculated from the following equation:
[formula] IC50 was calculated using logistic approximation.
Regarding `COc1cn(Cc2cc(F)c(F)c(F)c2)c(Nc2ccc3[nH]ccc3c2C)nc1=O` [Compound I-0939], the pIC50 is 8.40.
The same measure, in the same setting: the result for `COc1cn(Cc2ccccc2)c(NC2CCc3ccccc3C2)nc1=O` (stereo not drawn) [Compound I-0187] reads 6.64; that for `CCc1cc2c(cc1Nc1nc(=O)c(OC)cn1Cc1ccc(F)c(Cl)c1)CCC2` [Compound I-0242], 7.92.

Still in this assay, the particulars now being: 1321N1 cells stably expressing human P2X7 receptor; BzATP stimulation, Yo-Pro uptake; read-out: IC50 (antagonistic activity for the human P2X7 receptor), class symbol.
Take `CCc1ccccc1Nc1nc(=O)c(OC)cn1Cc1ccc(F)c(Cl)c1` [Compound I-0252]: the pIC50 is > 8.00.
As to `COc1cn(Cc2cccc(Cl)c2)c(Nc2cccc3sccc23)nc1=O` [Compound I-0484], the pIC50 is 7.00 to 8.00.
Still for that read-out and setting: the result for `CCc1ccc(OC)cc1Nc1nc(=O)c(OC)cn1Cc1ccccc1` [Compound I-0236] reads 7.00 to 8.00; that for `Cc1c(Cl)cccc1Nc1nc(=O)c(CC(=O)NC2CCOCC2)cn1Cc1ccccc1` [Compound I-0338], 6.30 to 7.00.
Still for that read-out and setting: the result for `COc1cn(Cc2ccccc2)c(Nc2ccc(Cl)c(Cl)c2Cl)nc1=O` [Compound I-0132] reads 6.30 to 7.00; that for `COc1cc(C)c(Nc2nc(=O)c(OC)cn2Cc2cccc(Cl)c2)cc1C` [Compound I-0250], > 8.00.
Still for that read-out and setting: under `COc1cn(Cc2ccccc2)c(Nc2cc(Cl)c(Cl)cc2Cl)nc1=O` [Compound I-0154] stands 6.30 to 7.00; under `CCc1cc(OC)c(OC)cc1Nc1nc(=O)c(F)cn1Cc1ccc(F)c(Cl)c1` [Compound I-0268], > 8.00; under `COc1cn(Cc2ccccc2)c(Nc2cc(Br)ccc2C)nc1=O` [Compound I-0386], 7.00 to 8.00.
For the molecule `Cc1c(Cl)cccc1Nc1nc(=O)c(C(=O)O)cn1Cc1ccccc1` [Compound I-0018], the pIC50 was 6.30 to 7.00.
Same read-out and setting: the result for `COc1cn(Cc2ccc(F)c(F)c2)c(Nc2ccc(N3CCOCC3)cc2C)nc1=O` [Compound I-0519] reads 7.00 to 8.00.
On the same count and under the same terms, under `COc1cn(Cc2ccccc2)c(Nc2cc(C(N)=O)ccc2Cl)nc1=O` [Compound I-0181] stands 6.00 to 6.30; under `COc1cn(Cc2ccc(F)c(Cl)c2)c(Nc2cccc(C(F)(F)F)c2C)nc1=O` [Compound I-0468], 7.00 to 8.00; under `COc1cn(Cc2cc(F)cc(Cl)c2)c(Nc2cc(C)c(C)cc2C)nc1=O` [Compound I-0381], > 8.00.
Same read-out and setting: under `CCc1c(Nc2nc(=O)c(F)cn2Cc2ccc(F)c(Cl)c2)cc(OC)cc1OC` [Compound I-0316] stands > 8.00.

Staying with this assay, now noted: antagonistic activity for the human P2X7 receptor; read-out: IC50.
Turning to `COc1cn(Cc2cc(F)cc(Cl)c2)c(Nc2cccc3c(=O)n(C)ccc23)nc1=O` [Compound I-0904], the pIC50 was 7.00 to 8.00.
Still for that read-out and setting: under `CCc1ccc(OC)cc1Nc1nc(=O)c(F)cn1Cc1cc(F)c(F)c(F)c1` [Compound I-1191] stands > 8.00; under `COc1cc(C)c(Nc2nc(=O)c(F)cn2Cc2cc(F)c(F)c(F)c2)cc1Cl` [Compound I-1175], > 8.00.
Consider `COc1cn(Cc2ccccc2)c(Nc2cc(C)c(F)cc2C)cc1=O` [Compound I-0946], for which the pIC50 was 6.00 to 6.30.
`O=C1CCCc2c(Nc3nc(=O)c(Cl)cn3Cc3cc(F)c(F)c(F)c3)cccc21` [Compound I-1162]: the pIC50 is > 8.00.
Same read-out and setting: the result for `COc1cc(C)c(Nc2nc(=O)c(OC)cn2Cc2ccc(F)c(Cl)c2)cc1F` [Compound I-0719] reads > 8.00; that for `COc1c(C)ccc(Nc2nc(=O)c(OC)cn2Cc2cc(F)cc(Cl)c2)c1C` [Compound I-0610], 7.00 to 8.00; that for `COc1cc(Nc2nc(=O)c(F)cn2Cc2cc(F)c(F)c(F)c2)c(C)nc1F` [Compound I-1117], 7.00 to 8.00.
In the case of `COc1cn(Cc2cc(F)cc(Cl)c2)c(Nc2cc(OC(F)(F)F)ccc2C)nc1=O` [Compound I-0694], the pIC50 is 6.30 to 7.00.
Still for that read-out and setting: the result for `COc1cn(Cc2ccc(F)c(Cl)c2)c(Nc2ccc3ncsc3c2C)nc1=O` [Compound I-0856] reads 7.00 to 8.00.
Turning to `COc1cn(Cc2cc(F)cc(F)c2)c(Nc2cc(-c3ccnn3C)ccc2C)nc1=O` [Compound I-0784], the pIC50 is 7.00 to 8.00.
The same measure, in the same setting: the result for `Cc1cc(F)c(-c2cccn(C)c2=O)cc1Nc1nc(=O)ccn1Cc1cc(F)c(F)c(F)c1` [Compound I-1137] reads 7.00 to 8.00.

By pIC50 is commonly meant the negative decadic logarithm of the IC50, by convention in mol/L.
